Here are results for 87 molecules from a melting point compilation (Tetko et al.; mined from patent text by program, amines drawn as free bases though some values may be those of a salt).

Bounds are passed on as bounds.

`Cc1c(C(=O)O)sc(=O)c2ccccc12`: the melting point (as a rule, the temperature of the solid-liquid transition) lay in the range of 243 to 245 °C.

For `CC(=O)Nc1c(C#N)cnn1-c1ccc(C)cc1Cl`, the melting point was in the range of 146 to 147 °C.

Molecule `CCNC(=O)C1OC(n2cnc3c(NCc4ccc(O)cc4)ncnc32)C(O)C1O` (configuration not stated) came in with a melting point of 180 °C.

Regarding `CS(=O)(=O)NC(CCC(O)(Cn1cncn1)c1ccc(F)cc1F)C(=O)O` (configuration not stated), the melting point is 165 to 173 °C.

As for `N#Cc1ccc2c(c1)S(=O)c1ccccc1C=C2` (configuration not stated), the melting point was in the range of 220 to 222 °C.

Take `CC(=O)SCCNC(=O)[C@H](CS)NC(=O)C(C)C`: the melting point lay in the range of 117 to 120 °C.

Molecule `CCCCCCCCCCCCOC(=O)c1ccc(O)c(N)c1` displayed a melting point of 86 to 89 °C.

In turn, `CC(=O)Nc1cc2c(cc1C#N)CCC2` registered a melting point of 172 °C.

As to `COC(=O)COc1cccc2c(O)cccc12`, the melting point was in the range of 177 to 179 °C.

The molecule `COC(=O)c1ncc(OS(=O)(=O)c2ccc(C)cc2)c2c1[nH]c1ccccc12` registered a melting point of 230 to 231 °C.

In the case of `CS(=O)(=O)Nc1cc(N2C(=O)C3=C(CCCC3)C2=O)c(F)cc1C#N`, the melting point came out at 113 °C.

The molecule `CC(C)(C)c1ccc(SCCCCCOc2ccc(C3=C(c4ccccc4)CCCc4cc(O)ccc43)cc2)cc1` returned a melting point of 139 °C.

The molecule `CCn1ncc2c(NCc3cccnc3)c3ccccc3nc21` came in with a melting point of 282 to 284 °C.

The molecule `COc1cc(O)cc(-c2cc3ccc(O)cc3o2)c1CC=C(C)C` yielded a melting point of 93 to 94 °C.

The molecule `CCCCCCCCCCCCCCCCCCOP(=O)(Cc1c(C)cc(C(C)(C)C)c(O)c1C)OCCCCCCCCCCCCCCCCCC` gave a melting point of 70 to 72 °C.

On to `CC(C)(C)OC(=O)NC1CNc2c(cc(Br)cc2[N+](=O)[O-])C1` (configuration not stated), for which the melting point was 193 to 195 °C.

Take `Cc1ccc(Cl)nc1N1CCCNC1=C[N+](=O)[O-]`: the melting point lay in the range of 176 to 183 °C.

In turn, `COc1cc(Br)cc([N+](=O)[O-])c1OCc1ccccc1` yielded a melting point of 74 to 76 °C.

Turning to `CC(C(N)=O)c1ccc2nc(-c3ccccc3)oc2c1` (configuration not stated), the melting point was found to be 193 °C.

Take `NC[C@H]1CNc2cccc(-c3ccccc3Cl)c2O1`: the melting point came out at 135 °C.

`CC(=Cc1cnc2nc(N)nc(N)c2c1)c1ccc(C(=O)OC(C)(C)C)cc1` came in with a melting point of over 300 °C.

In the case of `COc1cc(Oc2ccc(S(C)(=O)=O)nc2)cc2cc(C3=NCC(CC(N)=O)S3)[nH]c12` (configuration not stated), the melting point was 225 to 227 °C.

In the case of `Cc1cncc(CC(=O)c2ccccc2)c1`, the melting point was 53 to 54 °C.

`Cn1cncc1COCC(O)c1ccccc1` (configuration not stated) registered a melting point of 102 to 105 °C.

Take `Cc1c(NC(=O)C(CSC(=O)OCC(C)C)Cc2ccccc2)cccc1C(=O)O` (configuration not stated): the melting point is 165 to 167 °C.

Consider `C=CCNC(=O)N1CC(Oc2cccc(Br)c2)C1`, for which the melting point is 90 to 92 °C.

Molecule `N#CC(C(N)=S)c1ccc(Cl)c(Cl)c1` (configuration not stated) gave a melting point of 143 °C.

`CCN1C(=O)C(C)(C)CCc2c1ccc(Nc1ncc(Cl)c(N[C@@H]3CCCC[C@H]3NS(C)(=O)=O)n1)c2OC` came in with a melting point of 123 to 126 °C.

Molecule `CCOC(=O)/C=C/c1cn(-c2ccccc2)nc1OCc1ccc(OCc2nc(-c3ccco3)oc2C)c(OC)c1` gave a melting point of 177 to 178 °C.

As for `O=c1c2cn(Cc3ccccc3F)c3ccccc3c-2nn1-c1ccc(Cl)cc1`, the melting point lay within 338 to 339 °C.

For `C=C(C)C(=O)OC1CC(=O)NC1=O` (configuration not stated), the melting point worked out at 102 °C.

Molecule `CC(C)(C)C(O)C(CCCCOc1ccccc1)n1cncn1` (configuration not stated) registered a melting point of 79 to 81 °C.

Molecule `CCSc1c(O[C@@H]2CCC[C@H](N)C2)ccc2[nH]ncc12` (relative stereo) registered a melting point of 110 °C.

`CC(=O)Nc1ccn([C@@H]2C[C@H](OC(C)=O)[C@@H](O)[C@H]2O)c(=O)n1` (racemic) yielded a melting point of 98 to 100 °C.

With `CCOC(=O)C=Cc1ccc(C#CC2(O)CN3CCC2CC3)c(OCC)c1` (configuration not stated), the melting point was 152 to 153 °C.

Take `O=C(Nc1ccc(Cl)cc1)C1=C(N2CCCC2)CS(=O)(=O)N(Cc2ccc(Cl)cc2)c2ccccc21`: the melting point lay in the range of 190 to 194 °C.

`Cc1cccc2c1ncn2Cc1oc2ccc(Br)cc2c(=O)c1-c1ccccc1` yielded a melting point of 176 to 179 °C.

Regarding `CCn1c(C(O)(Cc2ccccc2)Cc2ccccc2)nc(-c2ccncc2)c1-c1ccc(Cl)cc1`, the melting point was 116 to 117 °C.

In turn, `Cn1nc(CNS(C)(=O)=O)nc1NCCCOc1cccc(CN2CCCCC2)c1` gave a melting point of 117 to 118 °C.

Regarding `CC(C)C(OCc1ccccc1)[C@H]1[C@H]([N+](=O)[O-])[C@H](c2cccnc2)N[C@@H]1C(=O)NCCC(=O)O` (some centres not stated), the melting point was in the range of 98 to 100 °C.

`O=C(N[C@H]1CCN(C(=O)c2cc(C(F)(F)F)cc(C(F)(F)F)c2)[C@H](Cc2ccc(Cl)cc2)C1)c1cc(O)nc2ccccc12` had a melting point of 222 to 224 °C.

In turn, `N#Cc1cc([N+](=O)[O-])ccc1Oc1ccc(C(=O)c2ccccc2)cc1` displayed a melting point of 180 °C.

The molecule `CC(=Cc1ccccc1)COc1cc(C)c(NC=O)c(C)c1C` registered a melting point of 152 to 154 °C.

Molecule `CCOCc1nc2ncc(C)nc2c(=O)[nH]1` registered a melting point of 181 to 183 °C.

Molecule `C#CC1(O)C=CC2C3CCC4=CC(=O)CCC4C3C(Cl)CC21CC` (configuration not stated) yielded a melting point of 202 °C.

With `N=c1n(Cc2ccc(F)c(F)c2)c2ccc(Br)cc2n1Cc1ccc(F)c(F)c1`, the melting point was 88 to 89.5 °C.

For `CCOC(=O)c1c(C(C)C)nn(-c2ccccc2)c1-c1ccc(F)cc1`, the melting point fell in the range of 92 to 93 °C.

As to `CCOc1ccc(Nc2ncc(C(=O)O)c(=O)[nH]2)cc1`, the melting point lay in the range of 250 to 252 °C.

Take `O=C(O)CCCCNc1ccccc1-c1ccccc1`: the melting point was 73 to 75 °C.

The molecule `Cc1cc(F)ccc1[C@@H]1CN(C2=CC(=O)CC2)CC[C@H]1C(=O)N(C)Cc1cc(C(F)(F)F)cc(C(F)(F)F)c1` (relative stereo) showed a melting point of 192 to 193 °C.

The molecule `CC(C)(C)OC(=O)N1CCN(C(c2ccccc2)c2ccc(Cl)cc2)CC1` (single isomer, unassigned; (-)) yielded a melting point of 156 °C.

The molecule `Clc1nc(N2CCOCC2)c2ccccc2n1` came in with a melting point of 103 to 105 °C.

Molecule `O=C(NCCCCN1CCC(c2cccc3ccccc23)CC1)c1ccc(NC(=O)c2ccc(Cl)cc2)cc1` showed a melting point of 264 °C.

As to `COc1ccc(CCN(C)CCOc2ccc(NC(=O)c3cc(SC)cc4c(=O)c5ccccc5[nH]c34)cc2)cc1OC`, the melting point worked out at 150 °C.

The molecule `CNc1cc(C(C)=O)ccc1OCCCN1CCC(c2noc3cc(F)ccc23)CC1` had a melting point of 151 to 153 °C.

On to `C=C(C)C(=O)N1c2ccc(OC)cc2CC1C(=O)O` (configuration not stated), for which the melting point fell in the range of 108 to 111 °C.

`Cc1cccc(C)c1CCCN1C(=O)c2ccccc2C1=O` yielded a melting point of 92 to 93.5 °C.

With `O=C(O)c1c(F)cc(OCCNC(=O)C2Cc3ccccc3N2S(=O)(=O)c2ccc(-c3ccc(F)cc3Cl)cc2)cc1F` (configuration not stated), the melting point was in the range of 75 to 80 °C.

`Fc1cc(F)c(N=C2NCCN2)c(F)c1` had a melting point of 148 to 150 °C.

On to `CCOC(=O)Cc1ccc(NC(=O)C(COc2ccc(Cl)cc2)NS(=O)(=O)c2ccc(I)cc2)cc1` (racemic), for which the melting point was in the range of 162 to 163 °C.

Take `O=C1c2cccc(NC(=S)Nc3ccccn3)c2C2CC3(CCN12)SCCS3` (configuration not stated): the melting point was determined as 142 °C.

The molecule `CC(=O)Nc1ccn(C2OC(CO[Si](c3ccccc3)(c3ccccc3)C(C)(C)C)CC2F)c(=O)n1` (configuration not stated) came in with a melting point of 81 to 86 °C.

Molecule `COc1ccccc1N=C(C)CC(=O)C(F)(F)F` came in with a melting point of 40 °C.

Consider `O=C(O)c1ccc(Cl)nc1C(F)(F)F`, for which the melting point lay within 154 to 156 °C.

The molecule `CCCCCCCCc1cc2c(s1)-n1c(C)nnc1CN=C2c1ccccc1Cl` returned a melting point of 80 to 82 °C.

For the molecule `CC(C)(C)[S@](=O)N1CCC[C@H]1c1cccs1`, the melting point was 125 to 130 °C.

Turning to `COC(=O)c1ccnc(-c2cccc3cc(Cc4cc(F)cc(Cl)c4)sc23)c1`, the melting point lay within 102 to 103 °C.

Turning to `O=C(NCCN1CCCC1)c1ccc(-c2cnc3c(c2)N(Cc2c(Cl)cccc2Cl)C(=O)CN3)cc1`, the melting point is over 200 °C.

Regarding `O=C(O)c1cc(NCc2ccccc2)ccc1O`, the melting point is 174 °C.

The molecule `C=CCNC(=O)c1ccc(-n2c(C)ccc2C)cc1Br` returned a melting point of 136 to 138 °C.

For the molecule `COc1nc(C)nc(N2CCc3ccccc3CC2)c1[N+](=O)[O-]`, the melting point lay within 123 to 128 °C.

In the case of `C=C(C)C(=O)OCCCCCCOc1ccc(C(=O)Oc2ccc(/C=C/C(=O)OC)cc2OC)cc1`, the melting point was 92 to 94 °C.

With `Nc1nc(-c2cc(Cl)ccc2Cl)nc(N2CCC(O)CC2)n1`, the melting point lay within 222 to 224 °C.

`CN(CCN1CCOCC1)c1noc2cc(O)ccc12` had a melting point of 91 to 92 °C.

In turn, `CC(=O)SCSc1nnn[nH]1` displayed a melting point of 90 °C.

Regarding `S=C=Nc1ccc(Nc2ccncc2)cc1`, the melting point was 195 to 196 °C.

`CCn1cc(C2(c3cccc(-c4cncc(Cl)c4)c3)N=C(N)N(C)C2=O)cn1` (configuration not stated) returned a melting point of 205 to 210 °C.

As for `Cc1c(C)c2c(c(C)c1OC(=O)c1ccccc1)SC(C)O2` (configuration not stated), the melting point is 100 to 102 °C.

`O=c1c2c(OCC3CS3)cc(OCC3CS3)cc2oc2ccc3ccccc3c12` (configuration not stated) had a melting point of 225 to 226 °C.

Turning to `C=C(C)COC1CC2C3CCC4=CC(=O)CCC4(C)C3(F)C(O)CC2(C)C1(O)C(=O)CO` (configuration not stated), the melting point lay in the range of 213 to 215 °C.

`O=S(=O)(c1nc(-c2ccc(F)cc2)c(-c2cccs2)[nH]1)C(F)(F)C(F)F`: the melting point lay in the range of 192 to 193 °C.

In turn, `CCOC(=O)C(N=Nc1ccc(Br)cc1C(=O)c1ccccn1)NC(=O)CCl` (configuration not stated) had a melting point of 160 to 162 °C.

Molecule `C=C(c1ccc(I)cc1)C(O)(Cn1cncn1)c1ccccc1F` (configuration not stated) displayed a melting point of 117 to 118 °C.

`C=CCN(C)C/C=C/COc1cc2c(cc1F)c(-c1ccc(Br)cc1)nn2C`: the melting point was in the range of 135 to 137 °C.

Regarding `Cc1cc(C)c2c(c1C)C(C(=O)O)=C(Cl)C2=O`, the melting point turned out to be 194 °C.

For the molecule `CCOC(=O)N1CCc2nnc(NN)cc2C1`, the melting point lay in the range of 145 to 147 °C.

`Cc1nc2cc3c(cc2c(=O)[nH]1)CCC3` returned a melting point of 284 °C.
